Publication PMC6151383 (Molecules : A Journal of Synthetic Chemistry and Natural …, 2017)
In brackets after ≈: the same amount, converted by molar mass.

Legend:
Candida krusei E28 = test system: Candida krusei E28; design: method as in PMID 22365879; conditions: 48 h incubation; cited from earlier work
[1] = test system: Aspergillus fumigatus 231; design: method as in PMID 22365879; conditions: 48 h incubation; cited from earlier work
M. kansasii = test system: M. kansasii; design: method as in PMID 22365879; conditions: range over M. kansasii strains; cited from earlier work
[2] = test system: Pseudomonas aeruginosa CCM 1961; design: method as in PMID 22365879; conditions: 48 h incubation; cited from earlier work
[3] = test system: Lichtheimia corymbifera 272; design: method as in PMID 22365879; conditions: 48 h incubation; cited from earlier work
Candida glabrata 20/I = test system: Candida glabrata 20/I; design: method as in PMID 22365879; conditions: 48 h incubation; cited from earlier work
[4] = test system: Enterococcus faecalis J 14365/08; design: method as in PMID 22365879; conditions: 48 h incubation; cited from earlier work
[5] = test system: Mycobacterium avium 330/88; design: method as in PMID 22365879; conditions: cited from earlier work
[6] = test system: Klebsiella pneumoniae D 11750/08; design: method as in PMID 22365879; conditions: 48 h incubation; cited from earlier work
[7] = test system: Trichophyton interdigitale 445; test: Antifungal microdilution broth MIC, T. interdigitale; type: cell-based; conditions: SI = IC50 (HepG2)/MIC, Trichophyton interdigitale
[8] = test system: Candida albicans ATCC 44859; design: method as in PMID 22365879; conditions: 48 h incubation; cited from earlier work
[9] = test system: Staphylococcus aureus CCM 4516/08; design: method as in PMID 22365879; conditions: 48 h incubation; cited from earlier work
[10] = test system: Trichophyton interdigitale 445; design: method as in PMID 22365879; conditions: cited from earlier work
[11] = test system: Escherichia coli CCM 4517; design: method as in PMID 22365879; conditions: 48 h incubation; cited from earlier work
M. kansasii 6509/96 = test system: M. kansasii 6509/96; design: method as in PMID 22365879; conditions: cited from earlier work
[12] = test system: Mycobacterium kansasii 235/80; design: method as in PMID 22365879; conditions: cited from earlier work
Candida tropicalis 156 = test system: Candida tropicalis 156; design: method as in PMID 22365879; conditions: 48 h incubation; cited from earlier work
[13] = test system: Mycobacterium tuberculosis 331/88 (H37Rv); design: method as in PMID 22365879; conditions: cited from earlier work
[14] = test system: Staphylococcus epidermidis H 6966/08; design: method as in PMID 22365879; conditions: 48 h incubation; cited from earlier work
Trichosporon asahii 1188 = test system: Trichosporon asahii 1188; design: method as in PMID 22365879; conditions: 48 h incubation; cited from earlier work
[15] = test system: ESBL-positive Klebsiella pneumoniae J 14368/08; design: method as in PMID 22365879; conditions: 48 h incubation; cited from earlier work

O=S(=O)(Nc1ncccn1)c1ccc(N=Cc2cc(Cl)ccc2O)cc1 [Compound 2c, 4-[(5-Chloro-2-hydroxybenzylidene)amino]-N-(pyrimidin-2-yl)benzenesulfonamide]
MIC CK 48 h (Candida krusei E28): >500 µM
MIC AF 48 h [1]: >500 µM
MIC, M. kansasii strains (M. kansasii): 8 to 32 µM
MIC PA 48 h [2]: >500 µM
MIC LC 48 h [3]: >500 µM
MIC CG 48 h (Candida glabrata 20/I): 125 µM (≈ 48.6 µg/mL)
MIC EF 48 h [4]: >500 µM
MIC M. avium 330/88 14 d ([5]; 14 d incubation): 125 µM (≈ 48.6 µg/mL)
MIC M. avium 330/88 21 d ([5]; 21 d incubation): 125 µM (≈ 48.6 µg/mL)
MIC KP 48 h [6]: >500 µM
SI for TI [7]: inactive
MIC CA 48 h [8]: 125 µM (≈ 48.6 µg/mL)
MIC SA 48 h [9]: 250 µM (≈ 97.2 µg/mL)
MIC TI 72 h ([10]; 72 h incubation): >500 µM
MIC TI 120 h ([10]; 120 h incubation): >500 µM
MIC EC 48 h [11]: >500 µM
MIC M. kansasii 6509/96 7 d (M. kansasii 6509/96; 7 d incubation): 16 µM (≈ 6.22 µg/mL)
MIC M. kansasii 6509/96 14 d (M. kansasii 6509/96; 14 d incubation): 32 µM (≈ 12.4 µg/mL)
MIC M. kansasii 6509/96 21 d (M. kansasii 6509/96; 21 d incubation): 32 µM (≈ 12.4 µg/mL)
MIC M. kansasii 235/80 7 d ([12]; 7 d incubation): 8 µM (≈ 3.11 µg/mL)
MIC M. kansasii 235/80 14 d ([12]; 14 d incubation): 16 µM (≈ 6.22 µg/mL)
MIC M. kansasii 235/80 21 d ([12]; 21 d incubation): 32 µM (≈ 12.4 µg/mL)
MIC CT 48 h (Candida tropicalis 156): >500 µM
MIC Mtb. 331/88 14 d ([13]; 14 d incubation): 125 µM (≈ 48.6 µg/mL)
MIC Mtb. 331/88 21 d ([13]; 21 d incubation): 250 µM (≈ 97.2 µg/mL)
MIC SE 48 h [14]: >500 µM
MIC TA 48 h (Trichosporon asahii 1188): 125 µM (≈ 48.6 µg/mL)
MIC KP-E 48 h [15]: >500 µM
